Data reported in patent US20100135903A1, “USE OF A DNA DAMAGING AGENT AND A LIGAND FOR THE TREATMENT OF CANCER” (MEDVET SCIENCE PTY. LTD., priority 2006, published 2010).
Like-named read-outs stand apart in the source and are kept apart here.

Legend:
Jurkat = test: Binding of La-specific mAb to apoptotic human cancer cell lines (Jurkat); conditions: 0.5 μM staurosporine, 20 μg/mL etoposide or 0.1 μg/mL vincristine, 3B9-FITC staining
HeLa = test: Binding of La-specific mAb to apoptotic human cancer cell lines (HeLa); conditions: 0.5 μM staurosporine, 20 μg/mL etoposide or 0.1 μg/mL vincristine, 3B9-FITC staining
Raji = test: Binding of La-specific mAb to apoptotic human cancer cell lines (Raji); conditions: 2 μM staurosporine, 20 μg/mL etoposide or 0.1 μg/mL vincristine, 3B9-FITC staining
U2OS = test: Binding of La-specific mAb to apoptotic human cancer cell lines (U2OS); assay type: cell-based; conditions: 0.5 μM staurosporine, 20 μg/mL etoposide, 3B9-FITC staining
Experimental: Direct immunofluorescence staining was performed using 1-2×10^5 cells at 10^6 cells/mL for 30 min at room temperature in PBS containing 0.1% BSA and 5 μg/mL of FITC-conjugated mAb. […] Cell viability was assessed by the exclusion of PI detected using the FL-2 (585-nm filter) or the exclusion of 7-AAD detected using the FL-3 (>650 nm filter).

apoptotic Jurkat cells = test: MDC inhibition of protein crosslinking and 3B9 binding in cisplatin-treated Jurkat cells; assay type: cell-based, human; conditions: for IC50: Homo sapiens, read-out: concentration of MDC required to inhibit half of the binding of 3B9
Experimental: FIG. 18 depicts that La antigen is crosslinked during apoptosis. (A) Jurkat cells incubated in 20 μg/mL cisplatin were removed at specified time points and incubated for 10 min. in 1% Triton X-100 solution before 3B9 binding analysis. Data are presented as density plots of staining with 3B9 vs. 7-AAD. (B) Immunoblots of cell lysates of control and cisplatin-treated Jurkat cells were probed with 3B9 for expression of La (top panels) or actin as a loading control (bottom panels) at specified times. (C) Jurkat cells incubated in the absence or presence of increasing concentrations of cisplatin were labeled with cadaverine-biotin added at 100 μM for 48 h. Cells were stained with strepatavidin-Alexa488 and analyzed by flow cytomtery. Data shown are MFI±SEM (n=3). (D) Jurkat cells incubated in the absence or presence of 20 μg/mL cisplatin were incubated with increasing concentrations of MDC. Cells were analyzed at specified times (24 □, 48 ? and 72 h ▪) for sulforhodamine 101 staining. Inset summarizes the dependence of the protein cross-linking ratio on MDC concentration at 48 h (—) and 72 h ( . . . ) after cisplatin treatment of Jurkat cells. (E) Jurkat cells incubated with cisplatin in the absence or presence of increasing concentrations of MDC were stained with 3B9. 3B9-specific binding is presented as Net MFI±SEM (n=3). Inset summarizes the dependence of 3B9-specific binding on MDC concentration at 24 h (—), 48 h (— —) and 72 h ( . . . ) after cisplatin treatment of Jurkat cells. Data are representative of three identical and independent assays, which produced similar results.
Transglutaminase 2 (TG2)-mediated protein-protein crosslinking in apoptotic cells was investigated using a modification of a previously described method. Briefly, cells were resuspended at 1×10^6 cells/mL in PBS containing 1% Triton X-100, 0.2 μg/mL sulforhodamine 101 and 0.1 μM SytoxGreen. Samples were vortexed and incubated for 5 min. before analysis by flow cytometry where fluorescence from Sytox Green and sulforhodamine were detected using FL-1 and FL-3, respectively. The degree of crosslinking in apoptotic cells was calculated as the ratio of the MFI of sulforhodamine staining in apoptotic cells to the MFI in control cells (protein crosslinking ratio). In other experiments, cells were incubated with PBS or 1% Triton X-100 in PBS for 10 min. at RT with intermittent vortexing.
To test inhibition of protein crosslinking, cultured cells were incubated with increasing concentrations of the competitive TG2inhibitor, monodansylcadaverine (MDC). MDC was dissolved in DMSO at 25 mM and then diluted in culture media before it was added to cell cultures at the specified concentrations for the specified duration. […]

PANC-1 cells [1] = test: Cell death and 3B9 binding of PANC-1 cells treated with gemcitabine and TSA in vitro; assay type: cell-based, human; conditions: compared with control or single agent
Experimental: FIG. 15 depicts that 3B9 binding to dead PANC-1 cells is augmented after combination treatment with gemcitabine and TSA produced additive cytotoxicity and DNA-damaging effects. PANC-1 cells were incubated with increasing concentrations of gemcitabine in the absence (clear columns) or presence of 100 ng/mL (hatched columns) or 200 ng/mL (filled columns) of TSA. Analysis was done for viability using 7-AAD (A), 3B9-specific binding (B) and DNA damage using γH2AX staining (C). Data are presented as mean±SEM from three independent experiments. Photomicrographs show PANC-1 cells treated with gemcitabine and TSA (+) or not (−), which were stained with γH2AX-specific mAb and 7-AAD (D).
Apoptosis or cell death was induced by adding cytotoxic drugs to culture media at the specified concentrations. […] Control (untreated) cells had ≧90% viability determined by PI or trypan blue staining (data not shown). […]
Indirect immunofluorescence staining was performed using purified mouse antibodies at 5 μg/mL for 30 min. at room temperature (RT) in PBS followed by Alexa488-conjugated anti-mouse IgG at 2 μg/mL for 30 min. at RT in PBS. […] Cells were washed then incubated (30 min. at RT) with 2 μg/mL of FITC-conjugated anti-rabbit IgG antibody, which was detected using the FL-1 channel. […] Flow cytometry data were analyzed using WinMDI v2.8 (Scripps Research Institute, La Jolla, Calif.). […]

PANC-1 cells [2] = test: MTS proliferation assay of PANC-1 cells; assay type: cell-based, human
Experimental: FIG. 50 depicts that gemcitabine and TSA synergise to reduce proliferation rates among PANC-1 cells in vitro. PANC-1 cells (2×10^4 cells) were seeded in flat bottom 96-well plates overnight using phenol-free RPMI-1640 medium containing 10% FCS (medium). A serial dilution of 2×10^4 cells was used to construct a standard curve for the MTS assay. Triplicate wells were incubated with increasing concentrations of TSA (nM) with or without the addition of increasing concentrations of gemcitabine. Three identical plates were incubated for 24, 48 or 72 h then medium was decanted and fresh medium (100 μL) containing 20 μL MTS/PMS substrate was added to all wells. Assays were performed according to the manufacturer's instructions. The change in the absorbance reading over time was calculated for each condition in units of change per 12 h (upper panel), which was converted to units of cell number change per 12 h (lower panel) using a standard curve of the absorbance reading […] (r^2=0.99).

COc1cc([C@@H]2c3cc4c(cc3[C@@H](O[C@@H]3O[C@@H]5CO[C@@H](C)O[C@H]5[C@H](O)[C@H]3O)[C@H]3COC(=O)[C@H]23)OCO4)cc(OC)c1O [Etoposide, etoposide]
percentage of PI+ and 3B9+ events after subtraction of control (PI+ and Sal5+) events (Jurkat): 22.6%
percentage of PI+ and 3B9+ events after subtraction of control (PI+ and Sal5+) events (HeLa): 36.1%
percentage of PI+ and 3B9+ events after subtraction of control (PI+ and Sal5+) events (Raji): 21.3%
percentage of PI+ and 3B9+ events after subtraction of control (PI+ and Sal5+) events (U2OS): 28.0%

CN(C)c1cccc2c(S(=O)(=O)NCCCCCN)cccc12 [MDC, monodansylcadaverine]
IC50 (apoptotic Jurkat cells; 24 h after cisplatin treatment of Jurkat cells): 260 ± 1 µM
IC50 (apoptotic Jurkat cells; 48 h after cisplatin treatment of Jurkat cells): 110 ± 1 µM
IC50 (apoptotic Jurkat cells; 72 h after cisplatin treatment of Jurkat cells): 150 ± 1 µM
effect on protein crosslinking (sulforhodamine crosslinking ratio) (apoptotic Jurkat cells; cisplatin-treated Jurkat cells): dose-dependent inhibitory effect

CN[C@@H]1C[C@H]2O[C@@](C)([C@@H]1OC)n1c3ccccc3c3c4c(c5c6ccccc6n2c5c31)C(=O)NC4 [Staurosporine, staurosporine]
percentage of PI+ and 3B9+ events after subtraction of control (PI+ and Sal5+) events (Jurkat): 56.1%
percentage of PI+ and 3B9+ events after subtraction of control (PI+ and Sal5+) events (HeLa): 62.5%
percentage of PI+ and 3B9+ events after subtraction of control (PI+ and Sal5+) events (Raji): 28.8%
percentage of PI+ and 3B9+ events after subtraction of control (PI+ and Sal5+) events (U2OS): 65.9%

CC(/C=C/C(=O)NO)=C\[C@@H](C)C(=O)c1ccc(N(C)C)cc1 [TSA, trichostatin A]
3B9-specific binding to PANC-1 cells (PANC-1 cells [1]): did not alter 3B9 binding
proliferation of PANC-1 cells (PANC-1 cells [2]; TSA alone): inhibited proliferation

CC[C@]1(O)C[C@H]2CN(CCc3c([nH]c4ccccc34)[C@@](C(=O)OC)(c3cc4c(cc3OC)N(C=O)[C@H]3[C@@](O)(C(=O)OC)[C@H](OC(C)=O)[C@]5(CC)C=CCN6CC[C@]43[C@@H]65)C2)C1 [Vincristine, vincristine]
percentage of PI+ and 3B9+ events after subtraction of control (PI+ and Sal5+) events (Jurkat): 12.1%
percentage of PI+ and 3B9+ events after subtraction of control (PI+ and Sal5+) events (HeLa): 18.6%
percentage of PI+ and 3B9+ events after subtraction of control (PI+ and Sal5+) events (Raji): 9.8%

Nc1ccn([C@@H]2O[C@H](CO)[C@@H](O)C2(F)F)c(=O)n1 [gemcitabine]
proliferation of PANC-1 cells (PANC-1 cells [2]; gemcitabine added at a TSA concentration of 50 nM): completely inhibited
numbers of PANC-1 cells in the cultures (PANC-1 cells [2]; gemcitabine added at a TSA concentration of 200 nM): significantly reduced the numbers
